Patent publication US20250295662A1, “USE OF CDK4/6 INHIBITOR IN TREATMENT OF DEDIFFERENTIATED LIPOSARCOMA” (priority 2022, published 2025)

Legend:
[1] = tested on: dedifferentiated liposarcoma; experiment: Clinical trial in dedifferentiated liposarcoma: efficacy (RECIST 1.1); assay type: in vivo, human; details: 180 mg oral once daily
Source text: (§1) In this study, a randomized, double-blind, placebo-controlled parallel trial design or a single arm trial design was employed. For the parallel control trial, after all patients signed the informed consent, subjects eligible for enrollment by screening were randomized (1:1) into two groups, i.e., a test group given the capsule of the compound of formula I and a control group given the placebo of the capsule of the compound of formula I, with 4 weeks (28 days) being 1 cycle; for the single arm trial, the administration regimen was the same as that for the test group of the parallel control trial. The efficacy and safety of the capsule of the compound of formula I in the treatment of dedifferentiated liposarcoma was evaluated by the clinical trials of the present disclosure.
(§2) Hemoglobin (HGB) ≥90.0 g/L; • b. Absolute neutrophil count (ANC) ≥1.5×10^9/L; • c. Platelet count (PLT) ≥90×10^9/L; • 2) Biochemical examination criteria: • a. Total bilirubin (TBIL) ≤1.5×upper limit of normal ULN; for patients with Gilbert syndrome, ≤3×ULN; • b. Alanine aminotransferase (ALT) and aspartate aminotransferase (AST) ≤3×ULN. If liver metastasis is accompanied, ALT and AST ≤5×ULN; • c.
(§3) Capsules of the compound of formula (I): strength: 50 mg or 60 mg, provided by Chia Tai Tianqing Pharmaceutical Group Co., Ltd.
(§4) Capsules of the compound of formula (I): 180 mg/each administration (based on the compound of formula (I)), oral administration at fasting, once daily, and 28 consecutive days of administration as one treatment cycle. Placebo of the capsule of the compound of formula (I): 0 mg/each administration (based on the compound of formula (I)), oral administration at fasting, once daily, and 28 consecutive days of administration as one treatment cycle.
Efficacy evaluation criteria: disease state was determined using the RECIST 1.1 criteria.

[2] = tested on: dedifferentiated liposarcoma; experiment: Clinical trial in dedifferentiated liposarcoma: safety (NCI-CTC AE 5.0); assay type: in vivo, human; details: patients, 28-day cycle
Source text: as §1, §2, §3, §4
Safety evaluation criteria: the severity of adverse events was determined using the NCI-CTC AE 5.0 criteria. Adverse event record forms including time of occurrence, severity, relevance to the studied treatment, duration, measures taken, and the final state of the subject should be faithfully filled out during the trial.

[3] = capsules 180 mg oral once daily

With `CC(C)c1c2cc(-c3nc(Nc4ccc(N5CCNCC5)cn4)ncc3F)ccc2nn1C` [compound of formula (I)] the “PFS, OS, ORR, DCR and DOR of the patients that could be evaluated” value ([1]; 28-day cycle) was “all good”, the “12-week PFS rate” value ([1]; 15 subjects who had achieved the evaluation of C3 (12 weeks) efficacy) was 60% and the “patients who achieved 12-week PFS” value ([1]; of the 15 subjects evaluated at C3 (12 weeks)) was 9 patients. The “Gastrointestinal reactions (diarrhea, vomiting, and the like), grade” value ([2]; capsules 180 mg oral at fasting once daily, mainly this grade, controlled after symptomatic treatment) was 1-2 grade, the “total incidence rate of TEAEs of grade 3 or above” value [2, 3] was 9% and the total safety [2, 3] was “good”.
